Here are results for twelve compounds from patent US20230203098A1, “HUMAN TRANSFERRIN RECEPTOR BINDING PEPTIDE” (priority 2020, published 2023).

This experiment deals with transferrin receptor (hTfR) (Homo sapiens, UniProt P02786). The experiment in a line: Intermolecular interaction evaluation test between transferrin receptor (hTfR) and peptide by surface plasmon resonance (SPR). Format: binding. As to the method:
For each of the various synthesized peptides, the intermolecular interaction of the peptide with the transferrin receptor (hTfR) was tested by surface plasmon resonance (SPR) according to the following method. The specific test method is as follows.
An NTA sensor chip (Global Life Sciences Technologies Japan) was inserted in a Biacore T200 (Global Life Sciences Technologies Japan) and a prime operation was performed 3 times with a running buffer: 10 mM HEPES pH 8.0 (Nacalai Tesque), 150 mM NaCl (Nacalai Tesque), 0.05% Tween 20 (Nacalai Tesque), 0.1% BSA (Sigma-Aldrich), 1.0% DMSO (FUJIFILM Wako Pure Chemical) to create an Equilibration state at a flow rate of 30 µL/min. After reacting with 350 mM EDTA solution for 60 seconds at a flow rate of 10 µL/min then reacting with 0.5 mM NiCl2 solution (Kishida Chemical) for 60 seconds at a flow rate of 10 µL/min, the NTA sensor chip was washed with 3 mM EDTA solution (Nacalai Tesque) for 60 seconds at a flow rate of 10 µL/min. After mixing 50 µL each of 60 mM EDC solution (Global Life Sciences Technologies Japan) and 650 mM NHS solution (Global Life Sciences Technologies Japan), the mixture was reacted for 420 seconds at a flow rate of 10 µL/min. By diluting with the running buffer, 150 µL of 3.2 µM hTfR solution was prepared and used for reaction for 600 seconds at a flow rate of 10 µL/min, thereby immobilizing hTfR on the NTA sensor chip. After immobilization, capping was performed by reacting with 1.0 M ethanolamine aqueous solution (Global Life Sciences Technologies Japan) for 420 seconds at a flow rate of 10 µL/min. A peptide dissolution liquid prepared to 10 mM in the DMSO solution was diluted with the running buffer to a final concentration of 10 µM so as to become the peptide dissolution liquid, then peptide solutions of 100 nM, 50 nM, 25 nM, 10 nM and 5 nM were prepared. Kinetics of the peptide to hTfR was acquired by SPR measurement using the above-mentioned samples. Single-cycle kinetics was used as a kinetic evaluation model and curve fitting was performed using Biacore T200 Evaluation Software Version 3.0 (Global Life Sciences Technologies Japan). An obtained sensorgram was subjected to curve fitting using the least-squares method, and the binding of the peptide to hTfR was evaluated by obtaining KD values. […] A chemical structure of hTfR No. 894 is as follows.
The variant peptides were synthesized according to Example 1 unless otherwise stated in Example 9 or 10. The linker-added peptides were synthesized according to Example 1, except that Fmoc-NH-SAL-PEG resin (Watanabe Chemical Industries) was used as a resin for the peptide synthesis when the linker was PEG. The peptide, to which a peptide, a fatty acid, PEG, or a conjugate thereof is added as a linker, was also synthesized according to Example 1, unless otherwise stated in Example 9 or 10.

[1] abbreviates: SPR, hTfR No. 894 variants with PEG12c linker (Table 2), read-out: KD.
Setting [2] is: surface plasmon resonance, hTfR, read-out: KD value for hTfR by SPR (class symbol).
The mark [3] stands for this setting: binding to hTfR by SPR, Table 2 peptides, read-out: KD value (SPR) class.

Where two headings read alike, the source gives them in different places. Where a SMILES comes first, the peptide text is derived from it. Bridges are numbered along the chain shown (N, C = ends). [ ]: non-standard residue; d: D form. Ala(imidazo(1,2-a)pyr3yl) = N[C@@H](Cc1cnc2ccccn12)C(=O)O; PEG12 = NCCOCCOCCOCCOCCOCCOCCOCCOCCOCCOCCOCCOCCC(=O)O; NMePhe(3-Cl) = CN[C@@H](Cc1cccc(Cl)c1)C(=O)O; NMeW = CN[C@@H](Cc1c[nH]c2ccccc12)C(=O)O; Phe(4-F) = N[C@@H](Cc1ccc(F)cc1)C(=O)O; NMeY = CN[C@@H](Cc1ccc(O)cc1)C(=O)O; NMeF = CN[C@@H](Cc1ccccc1)C(=O)O; PEG4 = NCCOCCOCCOCCOCCC(=O)O; dOrn = NCCC[C@@H](N)C(=O)O

transferrin receptor (hTfR), sequence (P02786 whole entry): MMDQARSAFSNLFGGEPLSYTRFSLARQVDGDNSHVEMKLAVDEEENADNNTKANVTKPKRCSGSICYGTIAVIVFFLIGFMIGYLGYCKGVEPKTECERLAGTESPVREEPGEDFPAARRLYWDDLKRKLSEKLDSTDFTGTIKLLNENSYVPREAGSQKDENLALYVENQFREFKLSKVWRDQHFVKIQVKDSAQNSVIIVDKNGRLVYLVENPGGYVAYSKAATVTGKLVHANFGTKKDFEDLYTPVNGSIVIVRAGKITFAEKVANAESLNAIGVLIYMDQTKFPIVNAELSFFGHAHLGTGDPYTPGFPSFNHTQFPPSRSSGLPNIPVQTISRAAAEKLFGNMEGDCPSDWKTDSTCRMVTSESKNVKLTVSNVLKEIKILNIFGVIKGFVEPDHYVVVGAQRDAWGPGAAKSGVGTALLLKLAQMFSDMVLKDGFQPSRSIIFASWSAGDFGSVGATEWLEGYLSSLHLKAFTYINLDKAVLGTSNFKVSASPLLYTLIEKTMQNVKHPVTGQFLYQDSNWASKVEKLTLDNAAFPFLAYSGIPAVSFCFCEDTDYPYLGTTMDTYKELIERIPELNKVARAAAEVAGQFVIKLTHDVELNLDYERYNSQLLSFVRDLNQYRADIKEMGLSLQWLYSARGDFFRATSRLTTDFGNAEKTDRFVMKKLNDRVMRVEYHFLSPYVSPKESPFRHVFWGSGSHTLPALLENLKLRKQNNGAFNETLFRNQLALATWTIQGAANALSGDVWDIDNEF

In the case of `CC[C@H](C)[C@@H]1NC(=O)[C@H](Cc2cnc3ccccn23)NC(=O)[C@H](Cc2ccc(O)cc2)NC(=O)[C@H](CC(N)=O)NC(=O)[C@H](Cc2c[nH]c3ccccc23)N(C)C(=O)[C@H](C(C)C)NC(=O)[C@H](Cc2cccc(Cl)c2)N(C)C(=O)[C@H](C(C)C)NC(=O)[C@H](C)NC(=O)CSC[C@@H](C(N)=O)NC(=O)[C@H](Cc2ccc(O)cc2)N(C)C(=O)[C@H](Cc2ccccc2)NC(=O)[C@@H](CCCNC(=N)N)NC(=O)[C@H](CCCNC(=N)N)NC(=O)[C@H]([C@@H](C)CC)NC1=O` [compound 456] ({CH2CO}-AV[NMePhe(3-Cl)]V[NMeW]NY[Ala(imidazo(1,2-a)pyr3yl)]IIR[dR]F[NMeY]C-NH2; thioether N-15), the Kd (SPR, hTfR, class symbols A-D, read-out: KD) was 1 to 100 nM.

On to `CC[C@H](C)[C@@H]1NC(=O)[C@H](Cc2ccc(O)cc2)NC(=O)[C@H](Cc2ccc(O)cc2)NC(=O)[C@H](CC(N)=O)NC(=O)[C@H](Cc2ccc(F)cc2)NC(=O)[C@H](C(C)C)NC(=O)[C@H](Cc2ccccc2)N(C)C(=O)[C@H](C(C)C)NC(=O)[C@H](C)NC(=O)CSC[C@@H](C(=O)NCCOCCOCCOCCOCCOCCOCCOCCOCCOCCOCCOCCOCCC(N)=O)NC(=O)[C@H](Cc2ccc(O)cc2)N(C)C(=O)[C@H](Cc2ccc(O)cc2)NC(=O)[C@H](CCCNC(=N)N)NC(=O)[C@H](CCCNC(=N)N)NC(=O)[C@H]([C@@H](C)CC)NC1=O` [compound 119] ({CH2CO}-AV[NMeF]V[Phe(4-F)]NYYIIRRY[NMeY]C[PEG12]-NH2; thioether N-15), for which the Kd under setting [1] lay in the range of 1 to 100 nM.

`CC[C@H](C)[C@@H]1NC(=O)[C@H](Cc2ccc(OCCN)cc2)NC(=O)[C@H](Cc2ccc(O)cc2)NC(=O)[C@H](CC(N)=O)NC(=O)[C@H](Cc2c[nH]c3ccccc23)NC(=O)[C@H](C(C)C)NC(=O)[C@H](Cc2ccccc2)N(C)C(=O)[C@H](C(C)C)NC(=O)[C@H](C)NC(=O)CSC[C@@H](C(N)=O)NC(=O)[C@H](Cc2ccc(O)cc2)N(C)C(=O)[C@H](Cc2ccccc2)NC(=O)[C@H](CCCNC(=N)N)NC(=O)C(C)(C)NC(=O)[C@H]([C@@H](C)CC)NC1=O` [compound 524]: the Kd (SPR, hTfR, class symbols A-D, read-out: KD (column without head, continuation of the table series)) lay within 100 to 1000 nM.

In the case of `CC[C@H](C)[C@@H]1NC(=O)[C@H](Cc2ccc(OC)cc2)NC(=O)[C@H](Cc2ccc(O)cc2)NC(=O)[C@H](CC(N)=O)NC(=O)[C@H](Cc2c[nH]c3ccccc23)N(C)C(=O)[C@H](C(C)C)NC(=O)[C@H](Cc2cccc(Cl)c2)N(C)C(=O)[C@H](C(C)C)NC(=O)[C@H](C)NC(=O)CSC[C@@H](C(N)=O)NC(=O)[C@H](Cc2ccc(O)cc2)N(C)C(=O)[C@H](Cc2ccccc2)NC(=O)[C@@H](C)NC(=O)[C@H](CCCCN)N(C)C(=O)[C@H]([C@@H](C)CC)NC1=O` [compound 378], under setting [2], the Kd lay within 100 to 1000 nM.

As for `CC[C@H](C)[C@@H]1NC(=O)[C@H](Cc2ccc(O)cc2)NC(=O)[C@H](Cc2ccc(O)cc2)NC(=O)[C@H](CC(N)=O)NC(=O)[C@H](Cc2c[nH]c3ccccc23)N(C)C(=O)[C@H](C(C)C)NC(=O)[C@H](Cc2ccccc2)NC(=O)[C@H](C(C)C)NC(=O)[C@H](C)NC(=O)CSC[C@@H](C(=O)NCCOCCOCCOCCOCCC(N)=O)NC(=O)[C@H](Cc2ccc(O)cc2)N(C)C(=O)[C@H](Cc2ccc(O)cc2)NC(=O)[C@H](CCCNC(=N)N)NC(=O)[C@H](CCCNC(=N)N)NC(=O)[C@H]([C@@H](C)CC)NC1=O` [compound 264], under setting [3], the Kd was less than 1 nM.

Take `CC[C@H](C)[C@@H]1NC(=O)[C@H](Cc2ccc(OC)cc2)NC(=O)[C@H](Cc2ccc(O)cc2)NC(=O)[C@H](CC(N)=O)NC(=O)[C@H](Cc2c[nH]c3ccccc23)N(C)C(=O)[C@H](C(C)C)NC(=O)[C@H](Cc2cccc(Cl)c2)N(C)C(=O)[C@H](C(C)C)NC(=O)[C@H](C)NC(=O)CSC[C@@H](C(N)=O)NC(=O)[C@H](Cc2ccc(O)cc2)N(C)C(=O)[C@H](Cc2ccccc2)NC(=O)[C@@H](C)NC(=O)[C@H](CCCCN)NC(=O)[C@H]([C@@H](C)CC)NC1=O` [compound 372]: the Kd under setting [2] is 1 to 100 nM.

Regarding `CC[C@H](C)[C@@H]1NC(=O)[C@H](Cc2ccc(OC)cc2)NC(=O)[C@H](Cc2ccc(O)cc2)NC(=O)[C@H](CC(N)=O)NC(=O)[C@H](Cc2c[nH]c3ccccc23)N(C)C(=O)[C@H](C(C)C)NC(=O)[C@H](Cc2cccc(Cl)c2)N(C)C(=O)[C@H](C(C)C)NC(=O)[C@H](C)NC(=O)CSC[C@@H](C(=O)NCCOCCOCCOCCOCCC(N)=O)NC(=O)[C@H](Cc2ccc(O)cc2)N(C)C(=O)[C@H](Cc2ccccc2)NC(=O)[C@@H](CCCNC(=N)N)NC(=O)[C@@H](CCCN)NC(=O)[C@H]([C@@H](C)CC)NC1=O` [compound 368] ({CH2CO}-AV[NMePhe(3-Cl)]V[NMeW]NYY(Me)II[dOrn][dR]F[NMeY]C[PEG4]-NH2; thioether N-15), under setting [2], the Kd was 1 to 100 nM.

As for `CC[C@H](C)[C@@H]1NC(=O)[C@H](Cc2ccc(O)cc2)NC(=O)[C@H](Cc2ccc(O)cc2)NC(=O)[C@H](CC(N)=O)NC(=O)[C@H](Cc2c[nH]c3ccccc23)NC(=O)[C@H](C(C)C)NC(=O)[C@H](Cc2ccccc2)N(C)C(=O)[C@H](C(C)C)NC(=O)[C@H](C)NC(=O)CSC[C@@H](C(=O)NCCOCCOCCOCCOCCOCCOCCOCCOCCOCCOCCOCCOCCC(N)=O)NC(=O)[C@H](Cc2ccc(O)cc2)N(C)C(=O)[C@H](Cc2ccc(O)cc2)NC(=O)[C@H](CCCNC(=N)N)NC(=O)[C@H](CCCNC(=N)N)NC(=O)[C@H](Cc2ccc(O)cc2)NC1=O` [compound 115] ({CH2CO}-AV[NMeF]VWNYYIYRRY[NMeY]C[PEG12]-NH2; thioether N-15), under setting [1], the Kd was in the range of 1 to 100 nM.

On to `CC[C@H](C)[C@@H]1NC(=O)[C@H](Cc2ccc(O)cc2)NC(=O)[C@H](Cc2ccc(O)cc2)NC(=O)[C@H](Cc2c[nH]cn2)NC(=O)[C@H](Cc2c[nH]c3ccccc23)NC(=O)[C@H](C(C)C)NC(=O)[C@H](Cc2ccccc2)N(C)C(=O)[C@H](C(C)C)NC(=O)[C@H](C)NC(=O)CSC[C@@H](C(N)=O)NC(=O)[C@H](Cc2ccc(O)cc2)N(C)C(=O)[C@H](Cc2ccc(O)cc2)NC(=O)[C@H](CCCNC(=N)N)NC(=O)[C@H](CCCNC(=N)N)NC(=O)[C@H]([C@@H](C)CC)NC1=O` [compound 274], for which the Kd under setting [3] lay within 100 to 1000 nM.

Turning to `CC[C@H](C)[C@@H]1NC(=O)[C@H](Cc2ccc(OC)cc2)NC(=O)[C@H](Cc2ccc(O)cc2)NC(=O)[C@H](CC(N)=O)NC(=O)[C@H](Cc2c[nH]c3ccccc23)N(C)C(=O)[C@H](C(C)C)NC(=O)[C@H](Cc2cccc(Cl)c2)N(C)C(=O)[C@H](C(C)C)NC(=O)[C@H](C)NC(=O)CSC[C@@H](C(N)=O)NC(=O)[C@H](Cc2ccc(O)cc2)N(C)C(=O)[C@H](CCC(=O)NCCOCCOCCOCCOCCOCCOCCOCCOC)NC(=O)[C@@H](CCCNC(=N)N)NC(=O)[C@H](CCCNC(=N)N)NC(=O)[C@H]([C@@H](C)CC)NC1=O` [compound 389], under setting [2], the Kd is less than 1 nM.

For `CC[C@H](C)[C@@H]1NC(=O)[C@H](Cc2ccc(O)cc2)NC(=O)[C@H](Cc2ccc(O)cc2)NC(=O)[C@H](CC(N)=O)NC(=O)[C@H](Cc2c[nH]c3ccccc23)NC(=O)[C@H](C(C)C)NC(=O)[C@H](Cc2ccccc2)N(C)C(=O)[C@H](C(C)C)NC(=O)[C@H](C)NC(=O)CSC[C@@H](C(=O)NCC(=O)O)NC(=O)[C@H](Cc2ccc(O)cc2)N(C)C(=O)[C@H](Cc2ccc(O)cc2)NC(=O)[C@H](CCCNC(=N)N)NC(=O)[C@H](CCCNC(=N)N)NC(=O)[C@H]([C@@H](C)CC)NC1=O` [compound 421], the Kd (surface plasmon resonance, peptide vs hTfR, read-out: KD value for hTfR by SPR (class symbol)) lay in the range of 1 to 100 nM.

In the case of `CC[C@H](C)[C@@H]1NC(=O)[C@H](C2CCCCC2)NC(=O)[C@H](Cc2ccc(O)cc2)NC(=O)[C@H](Cc2ccc(O)cc2)NC(=O)[C@H](CC(N)=O)NC(=O)[C@H](Cc2c[nH]c3ccccc23)NC(=O)[C@H](C(C)C)NC(=O)[C@H](Cc2ccccc2)N(C)C(=O)[C@H](C(C)C)NC(=O)[C@H](C)NC(=O)CSC[C@@H](C(N)=O)NC(=O)[C@H](Cc2ccc(O)cc2)N(C)C(=O)[C@H](Cc2ccc(O)cc2)NC(=O)[C@H](CCCNC(=N)N)NC(=O)[C@H](CCCNC(=N)N)NC1=O` [compound 282], the Kd under setting [3] fell in the range of 1 to 100 nM.
